This is an account of results in patent US20220348564A1, “PHENYL-[1,3]DIOXOLO[4,5-C]PYRIDINYL-PHENYL-, PHENYL-[1,3]DIOXOLO[4,5-C]PYRIDINYL-HETEROARYL-, OR PHENYL-(1,3)DIOXO[4,5-C]PYRIDINYL-PIPERIDINYL-METHYL-OXETANYLMETHYL-1H-BENZO[D]IMIDAZOLE-CARBOXYLIC ACID DERIVATIVES AND METHODS OF USING SAME” (Eccogene (Shanghai) Co., Ltd., priority 2021, published 2022).

Bounds are passed on as bounds.

The target of the experiment is T1, human GLP-1 (Homo sapiens, UniProt P43220).
T1 construct: expressed in transfected cells
T1 sequence (P43220 24-463): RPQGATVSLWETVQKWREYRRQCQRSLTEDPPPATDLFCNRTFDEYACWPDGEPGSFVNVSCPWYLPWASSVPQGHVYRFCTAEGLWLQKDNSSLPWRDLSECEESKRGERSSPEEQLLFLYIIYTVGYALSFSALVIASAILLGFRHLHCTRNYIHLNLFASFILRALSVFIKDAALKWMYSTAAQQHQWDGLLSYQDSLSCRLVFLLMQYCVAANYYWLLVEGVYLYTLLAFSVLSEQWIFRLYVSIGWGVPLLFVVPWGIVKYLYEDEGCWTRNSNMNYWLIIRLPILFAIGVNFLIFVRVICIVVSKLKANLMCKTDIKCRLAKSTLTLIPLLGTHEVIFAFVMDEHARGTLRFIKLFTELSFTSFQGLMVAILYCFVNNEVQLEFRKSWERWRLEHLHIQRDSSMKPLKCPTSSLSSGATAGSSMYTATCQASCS
In words: h-GLP-1 activity assay (Cisbio cAMP Gs dynamic kit, HTRF). The format is cell-based. Particulars: HEK293 cells with stable expression of human GLP-1, relative EC50, 10 nM human GLP-1 = 100% response. The method, then: Human GLP-1 agonizing activity was detected in HEK293 cells with stable expression of human GLP-1 by Cisbio cAMP Gs dynamic kit (Catalog #62AM4PEC) according to manufacturer's protocol. Briefly, cells were collected and resuspended in assay buffer containing 0.1% BSA and 0.5 mM of IBMX at concentration to 2.5×10^5 cells/mL. Two μL 5× compound solution and 8 μL cell suspension were added to each well of low-volume 384 white assay plate. After 30 min incubation at 37° C., 5 μL cAMP-d2 working solution and 5 μL anti-cAMP antibody-cryptate were added to each well, and incubate at room temperature for 1 hr. Series dilution of cAMP was used as standard. Human GLP-1 (7-37) was used as positive control and 10 nM human GLP-1 was set as 100% response. HTRF signals were read at 665 and 615 nm with EnVision plate reader and calculated cAMP concentration by intrapolation to the standard curve. The EC50 value of the tested compounds was calculated by fitting the dose response curve using a 4-parameter non-linear regression routine and relative EC50 was presented in Table S.
The compound `CC1(c2ccc(Cl)cn2)COc2cccc(C3CCN(Cc4nc5ccc(C(=O)O)cc5n4C[C@@H]4CCO4)CC3)c2OC1` (mixture of isomers) [Compound 86, 2-((4-(3-(5-chloropyridin-2-yl)-3-methyl-3,4-dihydro-2H-benzo[b][1,4]dioxepin-6-yl)piperidin-l-yl)methyl)-1-(((S)-oxetan-2-yl)methyl)-1H-benzo[d]imidazole-6-carboxylic acid] displayed an EC50 above 100 nM. The figure for `O=C(O)c1ccc2nc(CN3CCC(c4cccc5c4OC(c4ccc(Cl)cc4F)C(=O)N5)CC3)n(C[C@@H]3CCO3)c2c1` (mixture of isomers) [Compound 104, 2-((4-(2-(4-chloro-2-fluorophenyl)-3-oxo-3,4-dihydro-2H-benzo[b][1,4]oxazin-8-yl)piperidin-1-yl)methyl)-1-(((S)-oxetan-2-yl)methyl)-1H-benzo[d]imidazole-6-carboxylic acid] is 20 to 100 nM; for `C[C@@]1(c2ccc(C(F)(F)F)cn2)Oc2cccc(C3=CCC(Cc4nc5ccc(C(=O)O)cc5n4C[C@@H]4CCO4)OC3)c2O1` (single isomer, unassigned) [Compound 121] it is below 20 nM. With `N#Cc1ccc(COc2cccc([C@@H]3CC[C@H](Cc4nc5ccc(C(=O)O)cc5n4C[C@@H]4CCO4)OC3)n2)c(F)c1` (single isomer, unassigned) [Compound 32] the figure was below 20 nM; with `N#Cc1ccc(COc2cccc([C@H]3CC[C@H](Cc4nc5ccc(C(=O)O)cc5n4C[C@@H]4CCO4)OC3)n2)c(F)c1` (single isomer, unassigned) [Compound 30], below 20 nM; with `CC1(c2ccc(Cl)cc2F)Oc2cccc(C3CCC(Cc4nc5ccc(C(=O)O)cc5n4C[C@@H]4CCO4)OC3)c2O1` (mixture of isomers) [Compound 56, 2-((5-(2-(4-chloro-2-fluorophenyl)-2-methylbenzo[d][1,3]dioxol-4-yl)tetrahydro-2H-pyran-2-yl)methyl)-1-(((S)-oxetan-2-yl)methyl)-1H-benzo[d]imidazole-6-carboxylic acid], below 20 nM. The figure for `C[C@@]1(c2ccc(Cl)cc2F)Oc2cccc(C3CCN(Cc4nc5ccc(C(=O)NS(=O)(=O)C6CC6)cc5n4C[C@@H]4CCO4)CC3)c2O1` (single isomer, unassigned) [Compound 24] is below 20 nM; for `CC1(c2ccc(Cl)cc2F)Oc2cccc(C3CC4(C3)CN(Cc3nc5ccc(C(=O)O)cc5n3C[C@@H]3CCO3)C4)c2O1` (mixture of isomers) [Compound 23, 2-((6-(2-(4-chloro-2-fluorophenyl)-2-methylbenzo[d][1,3]dioxol-4-yl)-2-azaspiro[3.3]heptan-2-yl)methyl)-1-(((S)-oxetan-2-yl)methyl)-1H-benzo[d]imidazole-6-carboxylic acid] it is above 100 nM; for `CC1(c2ccc(Cl)cc2F)Oc2cccc(-c3cnc(Cc4nc5ccc(C(=O)O)cc5n4C[C@@H]4CCO4)nc3)c2O1` (mixture of isomers) [Compound 17, 2-((5-(2-(4-chloro-2-fluorophenyl)-2-methylbenzo[d][1,3]dioxol-4-yl)pyrimidin-2-yl)methyl)-1-(((S)-oxetan-2-yl)methyl)-1H-benzo[d]imidazole-6-carboxylic acid] it is below 20 nM. For the compound `CC1(c2ccc(Cl)cc2F)Oc2c(cccc2C2CCN(Cc3nc4ccc(C(=O)O)cc4n3C[C@@H]3CCO3)CC2)NC1=O` (mixture of isomers) [Compound 68, 2-((4-(2-(4-chloro-2-fluorophenyl)-2-methyl-3-oxo-3,4-dihydro-2H-benzo[b][1,4]oxazin-8-yl)piperidin-1-yl)methyl)-1-(((S)-oxetan-2-yl)methyl)-1H-benzo[d]imidazole-6-carboxylic acid], the EC50 was in the range of 20 to 100 nM.

`CC1(c2ccc(Cl)cc2F)Oc2cccc(-c3ccc(Cc4nc5ccc(C(=O)O)cc5n4C[C@@H]4CCO4)cc3)c2O1` (mixture of isomers) [Compound 15, 2-(4-(2-(4-chloro-2-fluorophenyl)-2-methylbenzo[d][1,3]dioxol-4-yl)benzyl)-1-(((S)-oxetan-2-yl)methyl)-1H-benzo[d]imidazole-6-carboxylic acid] came in with an EC50 below 20 nM. With `C[C@]1(c2ccc(Cl)cc2F)Oc2cccc(-c3ccc(Cc4nc5ccc(C(=O)O)cc5n4C[C@@H]4CCO4)nc3)c2O1` (single isomer, unassigned) [Compound 18] the figure was below 20 nM; with `O=C(O)c1ccc2nc(CCN3CC(c4cccc(OCc5ccc(Cl)cc5F)n4)C3)n(C[C@@H]3CCO3)c2c1` [Compound 82, (S)-2-(2-(3-(6-((4-chloro-2-fluorobenzyl)oxy)pyridin-2-yl)azetidin-1-yl)ethyl)-1-(oxetan-2-ylmethyl)-1H-benzo[d]imidazole-6-carboxylic acid], 20 to 100 nM.

Consider `O=C(O)c1ccc2nc(CN3CC=C(c4cccc5c4OC(c4ccc(Cl)cc4F)C(=O)N5)CC3)n(C[C@@H]3CCO3)c2c1` (mixture of isomers) [Compound 81, 2-((4-(2-(4-chloro-2-fluorophenyl)-3-oxo-3,4-dihydro-2H-benzo[b][1,4]oxazin-8-yl)-3,6-dihydropyridin-1(2H)-yl)methyl)-1-(((S)-oxetan-2-yl)methyl)-1H-benzo[d]imidazole-6-carboxylic acid], for which the EC50 is above 100 nM. With `CC1(c2ccc(Cl)cc2F)Oc2cccc(C3=CCC(Cc4nc5ccc(C(=O)O)cc5n4C[C@@H]4CCO4)OC3)c2O1` (mixture of isomers) [Compound 61, 2-((5-(2-(4-chloro-2-fluorophenyl)-2-methylbenzo[d][1,3]dioxol-4-yl)-3,6-dihydro-2H-pyran-2-yl)methyl)-1-(((S)-oxetan-2-yl)methyl)-1H-benzo[d]imidazole-6-carboxylic acid] the figure was below 20 nM; with `C[C@]1(c2ccc(Cl)cn2)Oc2cccc(C3=CC[C@@H](Cc4nc5c(F)cc(C(=O)O)cc5n4Cc4cscn4)OC3)c2O1` (single isomer, unassigned) [Compound 117], above 100 nM.

For `N#Cc1ccc(COc2cccc(C34CCC(Cc5nc6ccc(C(=O)O)cc6n5C[C@@H]5CCO5)(CC3)OC4)n2)c(F)c1` [Compound 36, (S)-2-((4-(6-((4-cyano-2-fluorobenzyl)oxy)pyridin-2-yl)-2-oxabicyclo[2.2.2]octan-1-yl)methyl)-1-(oxetan-2-ylmethyl)-1H-benzo[d]imidazole-6-carboxylic acid], the EC50 is above 100 nM. The figure for `C[C@@]1(c2ccc(Cl)cn2)Oc2cccc(C3=CC[C@@H](Cc4nc5ccc(C(=O)O)cc5n4C[C@@H]4CCO4)OC3)c2O1` (single isomer, unassigned) [Compound 79] is above 100 nM. With `O=C(O)c1ccc2nc(CC34CCC(c5ccnc(OCc6ccc(Cl)cc6F)n5)(CC3)CO4)n(C[C@@H]3CCO3)c2c1` [Compound 35, (S)-2-((4-(2-((4-chloro-2-fluorobenzyl)oxy)pyrimidin-4-yl)-2-oxabicyclo[2.2.2]octan-1-yl)methyl)-1-(oxetan-2-ylmethyl)-1H-benzo[d]imidazole-6-carboxylic acid] the figure was above 100 nM; with `C[C@]1(c2ccc(Cl)cn2)Oc2cccc(C3=CC[C@@H](Cc4nc5ccc(C(=O)O)cc5n4Cc4cscn4)OC3)c2O1` (single isomer, unassigned) [Compound 115], above 100 nM; with `C[C@]1(c2ccc(Cl)cn2)Oc2cccc(C3=CC[C@H](Cc4nc5c(F)cc(C(=O)O)cc5n4Cc4cscn4)OC3)c2O1` (single isomer, unassigned) [Compound 116], below 20 nM. In turn, `C[C@@]1(c2ccc(Cl)cn2)Oc2cccc(C34COC(Cc5nc6ccc(C(=O)O)cc6n5C[C@@H]5CCO5)CC3C4)c2O1` (single isomer, unassigned) [Compound 75] had an EC50 above 100 nM. `C[C@@]1(c2ccc(Cl)cn2)Oc2cccc(N3CC4C(Cc5nc6ccc(C(=O)O)cc6n5C[C@@H]5CCO5)C4C3)c2O1` (single isomer, unassigned) [Compound 73] came in with an EC50 above 100 nM. The figure for `CC1(c2ccc(Cl)cc2F)Oc2cccc(-c3ccc(Cc4nc5ccc(C(=O)O)cc5n4C[C@@H]4CCO4)nc3)c2O1` (mixture of isomers) [Compound 16, 2-((5-(2-(4-chloro-2-fluorophenyl)-2-methylbenzo[d][1,3]dioxol-4-yl)pyridin-2-yl)methyl)-1-(((S)-oxetan-2-yl)methyl)-1H-benzo[d]imidazole-6-carboxylic acid] is below 20 nM; for `C[C@]1(c2ccc(C(F)(F)F)cn2)Oc2cccc(C3=CCC(Cc4nc5c(F)cc(C(=O)O)cc5n4C[C@@H]4CCO4)OC3)c2O1` (single isomer, unassigned) [Compound 122] it is above 100 nM; for `C[C@]1(c2ccc(Cl)cn2)Oc2cccc(-c3ccc(Cc4nc5ccc(C(=O)O)cc5n4C[C@@H]4CCO4)cc3)c2O1` (single isomer, unassigned) [Compound 40] it is below 20 nM. The figure for `O=C(O)c1ccc2nc(Cc3cc(F)c(-c4cccc5c4OC(c4ccc(Cl)cc4F)CO5)cc3F)n(C[C@@H]3CCO3)c2c1` (mixture of isomers) [Compound 60, 2-(4-(3-(4-chloro-2-fluorophenyl)-2,3-dihydrobenzo[b][1,4]dioxin-5-yl)-2,5-difluorobenzyl)-1-(((S)-oxetan-2-yl)methyl)-1H-benzo[d]imidazole-6-carboxylic acid] is below 20 nM; for `C[C@@]1(c2ccc(Cl)cn2)Oc2cccc(C34CCN(Cc5nc6ccc(C(=O)O)cc6n5C[C@@H]5CCO5)CC3C4)c2O1` (single isomer, unassigned) [Compound 72] it is below 20 nM.
